Measurements taken from ChEMBL document CHEMBL1201862, “PubChem BioAssay data set” (2004).
Calls of active or inactive are those of the source.

Columns and labels:
[1] = cytotoxicity in OVCAR8 ovarian cancer cells, dose response, PAX8 project, cell-based, plate reader, dry powder samples (AID 743197); format: functional; settings: OVCAR-8
[2] = NIH:OVCAR-3 ovarian cancer cell cytotoxicity, dose response, PAX8 inhibitor project, plate reader, dry powder samples (AID 743044); format: functional, cell-based
Paired box protein Pax-8 = Paired box protein Pax-8 (Homo sapiens, UniProt Q06710); experiment: inhibitors of PAX8-driven TPO luciferase reporter, dose response, RMG-I cells, cherry-pick (AID 687027); format: functional, cell-based;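 also: luciferase reporter driven by Pax8 target thyroperoxidase promoter measured by SteadyGlo luminescence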
[3] = IOSE-T80 ovarian epithelial cell cytotoxicity, dose response, cytotoxicity control for PAX8 inhibitor project, plate reader, dry powder samples (AID 743045); format: functional, cell-based
[4] = non-specific cell cytotoxicity, dose response, cytotoxicity control for PAX8 inhibitor project, plate reader, dry powder samples (AID 743021); format: functional, cell-based
[5] = A2780 ovarian cancer cell cytotoxicity, dose response, cytotoxicity control, plate reader, dry powder samples (AID 743046); format: functional, cell-based
[6] = Late stage assay provider results from the probe development effort to identify inhibitors of the Plasmodium falciparum M18 Aspartyl Aminopeptidase (M18AAP): radiolabel-based cell-based dose response assay to identify compounds that inhibit P. falciparum growth in RBCs, Set 2..; format: functional

Sequence of Paired box protein Pax-8 (Q06710 whole entry): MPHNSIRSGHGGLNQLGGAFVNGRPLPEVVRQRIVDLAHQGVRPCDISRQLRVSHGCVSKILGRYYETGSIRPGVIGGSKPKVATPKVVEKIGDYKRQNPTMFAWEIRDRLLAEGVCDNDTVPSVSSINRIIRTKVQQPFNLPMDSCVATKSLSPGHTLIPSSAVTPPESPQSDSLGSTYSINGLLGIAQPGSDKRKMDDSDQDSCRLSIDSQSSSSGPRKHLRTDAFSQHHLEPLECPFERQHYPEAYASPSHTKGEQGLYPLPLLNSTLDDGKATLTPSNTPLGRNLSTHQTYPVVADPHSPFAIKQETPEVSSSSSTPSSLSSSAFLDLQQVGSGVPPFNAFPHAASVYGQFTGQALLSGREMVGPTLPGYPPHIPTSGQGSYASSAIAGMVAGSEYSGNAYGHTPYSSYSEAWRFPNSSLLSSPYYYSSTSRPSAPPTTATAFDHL

Compound	AC50 [1]	AC50 [2]	AC50 (Paired box protein Pax-8)	AC50 [3]	AC50 [4]	AC50 [5]	IC50 [6]
Cc1ccc(S(=O)(=O)Nc2ccc3c(c2)C(=O)N([C@H](C)CO)C[C@H](C)[C@H](CN(C)Cc2ccc(C(F)(F)F)cc2)OCCCC[C@H](C)O3)cc1	24.7 µM (active)	19.4 µM (active)	9.98 µM (active)	46.2 µM (active)	41.7 µM (active)	–	–
C[C@H]1CCCCO[C@H](CN(C)S(=O)(=O)c2ccc(Cl)cc2)[C@@H](C)CN([C@@H](C)CO)C(=O)c2cc(NS(=O)(=O)c3ccc(F)cc3)ccc2O1	–	–	8.27 µM (active)	–	–	58.4 µM (active)	–
Oc1ccc(CCNc2c3c(nc4ccccc24)CCCC3)cc1O	–	–	–	–	–	–	3.6 µM (active)
